Test system: 889142-216-R-J1-PDC complex spheroid viability
Test: Anticancer human tumor 889142-216-R-J1-PDC patient-derived bladder carcinoma cell line growth inhibition [POLQ]
Details: for IC50: curve of first compound; for viability, T/C: stronger effect = lower value
In short: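 Patient-derived tumour cells were co-cultured with HUVEC and mesenchymal stem cells as multicellular spheroids at 37 °C. They were treated with POLQ inhibitors (novobiocin, ART-558, RP6685) alone or combined with other agents. Top concentrations were at or near clinical Cmax (otherwise 10 microM; SN-38 at 1 microM), decreasing in half-log steps.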

[1] = second compound 0.0316 µM, first compound 0.0316 µM
[2] = second compound 0.0316 µM, first compound 0.1 µM
[3] = second compound 0.0316 µM, first compound 0.316 µM
[4] = second compound 0.0316 µM, first compound 1 µM
[5] = second compound 0.0316 µM, first compound 3.16 µM
[6] = second compound 0.0316 µM, first compound 10 µM
[7] = second compound 0.1 µM, first compound 0.0316 µM
[8] = second compound 0.1 µM, first compound 0.1 µM
[9] = second compound 0.1 µM, first compound 0.316 µM
[10] = second compound 0.1 µM, first compound 1 µM
[11] = second compound 0.1 µM, first compound 3.16 µM
[12] = second compound 0.1 µM, first compound 10 µM
[13] = second compound 0.316 µM, first compound 0.0316 µM
[14] = second compound 0.316 µM, first compound 0.1 µM
[15] = second compound 0.316 µM, first compound 0.316 µM
[16] = second compound 0.316 µM, first compound 1 µM
[17] = second compound 0.316 µM, first compound 3.16 µM
[18] = second compound 0.316 µM, first compound 10 µM
[19] = second compound 1 µM, first compound 0.0316 µM
[20] = second compound 1 µM, first compound 0.1 µM
[21] = second compound 1 µM, first compound 0.316 µM
[22] = second compound 1 µM, first compound 1 µM
[23] = second compound 1 µM, first compound 3.16 µM
[24] = second compound 1 µM, first compound 10 µM
[25] = second compound 3.16 µM, first compound 0.0316 µM
[26] = second compound 3.16 µM, first compound 0.1 µM
[27] = second compound 3.16 µM, first compound 0.316 µM
[28] = second compound 3.16 µM, first compound 1 µM
[29] = second compound 3.16 µM, first compound 3.16 µM
[30] = second compound 3.16 µM, first compound 10 µM
[31] = second compound 10 µM, first compound 0.0316 µM
[32] = second compound 10 µM, first compound 0.1 µM
[33] = second compound 10 µM, first compound 0.316 µM
[34] = second compound 10 µM, first compound 1 µM
[35] = second compound 10 µM, first compound 3.16 µM
[36] = second compound 10 µM, first compound 10 µM
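Further: spheroids exposed to compounds for seven days.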
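Wherever viability, T/C is given: 100% = DMSO vehicle control viability.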

CC1COCCN1c1cc(C2(S(C)(=N)=O)CC2)nc(-c2ccnc3[nH]ccc23)n1 (centres undefined) + Nc1ccc(C#CCN(C(=O)Cc2ncc(C(F)(F)F)cc2C(F)(F)F)c2ccc(F)cc2)nn1
IC50 (second compound 0.0316 µM): 2.9 µM
IC50 (second compound 0.1 µM): 2.59 µM
IC50 (second compound 0.316 µM): > 10 µM
IC50 (second compound 1 µM): > 10 µM
IC50 (second compound 3.16 µM): > 10 µM
IC50 (second compound 10 µM): > 10 µM
viability, T/C [1]: 101%
viability, T/C [2]: 82%
viability, T/C [3]: 70.8%
viability, T/C [4]: 59.3%
viability, T/C [5]: 46.1%
viability, T/C [6]: 45%
viability, T/C [7]: 98%
viability, T/C [8]: 89%
viability, T/C [9]: 80.8%
viability, T/C [10]: 56.1%
viability, T/C [11]: 51.5%
viability, T/C [12]: 42.4%
viability, T/C [13]: 89.5%
viability, T/C [14]: 74.7%
viability, T/C [15]: 81.8%
viability, T/C [16]: 60.9%
viability, T/C [17]: 48.9%
viability, T/C [18]: 51.8%
viability, T/C [19]: 81.8%
viability, T/C [20]: 79.2%
viability, T/C [21]: 95.3%
viability, T/C [22]: 63.2%
viability, T/C [23]: 58.6%
viability, T/C [24]: 42.8%
viability, T/C [25]: 81.7%
viability, T/C [26]: 89.3%
viability, T/C [27]: 72.1%
viability, T/C [28]: 59.2%
viability, T/C [29]: 53.9%
viability, T/C [30]: 56.5%
viability, T/C [31]: 107%
viability, T/C [32]: 99.2%
viability, T/C [33]: 111%
viability, T/C [34]: 62.4%
viability, T/C [35]: 61%
viability, T/C [36]: 48.4%

CCCS(=O)(=O)Nc1ccc(F)c(C(=O)c2c[nH]c3ncc(-c4ccc(Cl)cc4)cc23)c1F + Nc1ccc(C#CCN(C(=O)Cc2ncc(C(F)(F)F)cc2C(F)(F)F)c2ccc(F)cc2)nn1
IC50 (second compound 0.0316 µM): 7.49 µM
IC50 (second compound 0.1 µM): 7.28 µM
IC50 (second compound 0.316 µM): 7.56 µM
IC50 (second compound 1 µM): > 10 µM
IC50 (second compound 3.16 µM): 9.53 µM
IC50 (second compound 10 µM): > 10 µM
viability, T/C [1]: 97.8%
viability, T/C [2]: 118%
viability, T/C [3]: 122%
viability, T/C [4]: 98.3%
viability, T/C [5]: 71.5%
viability, T/C [6]: 42.8%
viability, T/C [7]: 114%
viability, T/C [8]: 98.7%
viability, T/C [9]: 92.8%
viability, T/C [10]: 96.5%
viability, T/C [11]: 69.6%
viability, T/C [12]: 41.7%
viability, T/C [13]: 105%
viability, T/C [14]: 101%
viability, T/C [15]: 87.4%
viability, T/C [16]: 78.6%
viability, T/C [17]: 80.3%
viability, T/C [18]: 40.6%
viability, T/C [19]: 105%
viability, T/C [20]: 81.6%
viability, T/C [21]: 129%
viability, T/C [22]: 76.2%
viability, T/C [23]: 63.3%
viability, T/C [24]: 49.4%
viability, T/C [25]: 93.7%
viability, T/C [26]: 92.1%
viability, T/C [27]: 116%
viability, T/C [28]: 94.2%
viability, T/C [29]: 92.5%
viability, T/C [30]: 47.9%
viability, T/C [31]: 93.2%
viability, T/C [32]: 103%
viability, T/C [33]: 98.7%
viability, T/C [34]: 96.8%
viability, T/C [35]: 77.5%
viability, T/C [36]: 59.2%

From PubChem BioAssay AID1963831 (Molecular Pharmacology Branch, DTP, NCI, 2024)
